Calls of active or inactive are those of the source. The calls are words filed in the database; no cut-off is given here.

In series [1] the test system is RAW264.7. Description: Cytotoxicity against mouse RAW264.7 cells assessed as reduction in cell viability at 30 uM incubated for 24 hrs by MTT assay relative to control. In kind it is toxicity, cell-based. Particulars: raw264.7, 24 h. (Formazan colour is commonly taken as a measure of viable cells.)
Series [2] in a line: Cytotoxicity against mouse RAW264.7 cells assessed as inhibition of cell growth incubated for 24 hrs by MTT assay. In kind it is toxicity, cell-based.
Series [3] has as its system RAW264.7. Description: Anti-inflammatory activity in LPS-stimulated mouse RAW264.7 cells assessed as reduction in iNOS expression by Western blot analysis. In kind it is functional, cell-based. Particulars: dose 2.5-10 µM. For orientation: Immunoblotting shows a protein as a band on a membrane.
In series [4] the test system is RAW264.7. In words: Anti-inflammatory activity in LPS-stimulated mouse RAW264.7 cells assessed as reduction in COX-2 expression by Western blot analysis. In kind it is functional, cell-based. The following applies: dose 2.5-10 µM.
The subject of series [5] is RAW264.7. In words: Inhibition of MAPK signaling pathway in LPS-stimulated mouse RAW264.7 cells assessed as decrease in phosphorylation of p38 MAPK at 2.5 to 10 uM by Western blot analysis. In kind it is cell-based. Particulars: dose 2.5-10 µM.
Series [6] deals with RAW264.7. Description: Anti-inflammatory activity in LPS-stimulated mouse RAW264.7 cells assessed as inhibition of ROS production at 2.5 to 10 uM preincubated with compound for 1 hrs followed by LPS stimulation and measured after 23 hrs by DCFH-DA staining based flow cytometric analysis. In kind it is functional, cell-based. Particulars: dose 2.5-10 µM, time 24.0 hrs. (In general: A flow cytometer gives signals particle by particle.)

In series [7] the test system is Mus musculus. Description: Anti-inflammatory activity in LPS-induced BALB/c mouse model of […] assessed as inhibition of LPS-induced increase in NO production in BALF at 5 to 20 mg/kg, po preadministered with compound for 3 days followed by LPS stimulation for 6 hrs after 1 hrs compound administration on day 3 by Griess reagent based method. In kind it is functional, organism-based. Particulars: dose 5-20 mg/kg, time 3.0 day.

Series [8] has as its system Mus musculus. Description: Anti-inflammatory activity in LPS-induced BALB/c mouse model of […] assessed as inhibition of COX-2 expression preadministered orally with compound for 3 days followed by LPS stimulation for 6 hrs after 1 hrs compound administration on day 3 by Western blot analysis. In kind it is functional, organism-based. The following applies: dose 5-20 mg/kg, route po, time 3.0 day.

For series [9], the system named is Mus musculus. In words: In vivo inhibition of NLRP3 inflammasome activation in LPS-induced BALB/c mouse model of […] assessed as reduction in IL-1beta expression preadministered orally with compound for 3 days followed by LPS stimulation for 6 hrs after 1 hrs compound administration on day 3 by Western blot analysis. The following applies: dose 5-20 mg/kg, route po, time 3.0 day. In kind it is functional.

For series [10], the system named is RAW264.7. In words: cells. The following applies: Mus musculus.
Description: Anti-inflammatory activity in mouse RAW264.7 cells assessed as inhibition of LPS-induced NO production preincubated with compound for 1 hrs followed by LPS stimulation and measured after 23 hrs by Griess reagent based method

`CC(=O)O[C@H]1C[C@@]2(C)[C@@H](C[C@@H](O)[C@H]3[C@@]4(C)CC[C@@H](O)[C@@H](C)[C@@H]4CC[C@@]32C)/C1=C(\CCC=C(C)C)C(=O)OCc1cn(-c2ccccc2)nn1`: the Activity is 102.79% in the series on RAW264.7 [1], “Dose-Dependent Effect” with RAW264.7 [3], “Dose-Dependent Effect” in the series on RAW264.7 [4] and “Dose-Dependent Effect” in the series with Mus musculus [8]. Also, the half-maximal inhibitory concentration (IC50) at 24 h in series [2] was 94.3 µM. In the series with RAW264.7 [5], the inhibition entry was “Active”. Also, the outcome with RAW264.7 [6] and in the series on Mus musculus [7] was Active. In addition, the inhibition entry in the series with Mus musculus [9] was “Dose-Dependent Effect”. In addition, half-maximal inhibition in the series on RAW264.7 [10] (IC50) was put at 3.26 µM.

For orientation: IC50 means the midpoint of a concentration-inhibition curve.

The values are drawn from ChEMBL document CHEMBL5625219, “Design, synthesis fusidic acid derivatives alleviate acute lung injury via inhibiting MAPK/NF-κB/NLRP3 pathway” (Eur J Med Chem, 2023).
